Measurements as given in patent publication US7632827B2, “Anti-cancer phosphine containing [AuIIIm(CNC)mL]n+ complexes and derivatives thereof and methods for treating cancer using such compositions” (The University of Hong Kong, priority 2006, dated 2009).

Columns and labels:
[1] = system: SUNE1 (human nasopharyngeal carcinoma, cisplatin sensitive); assay: MTT cytotoxicity, SUNE1; format: cell-based; settings: 72 h
Experimental: (§1) The cytotoxicities of the gold(III) compounds toward several human cancer cell lines including nasopharyngeal carcinoma (SUNE1, and its cisplatin variant CNE1), hepatocellular carcinoma (HepG2), and cervical epitheloid carcinoma (HeLa) were determined using a well-established MTT assay.

[2] = system: CNE1 (human nasopharyngeal carcinoma, cisplatin resistance); assay: MTT cytotoxicity, CNE1; format: cell-based; settings: 72 h
Experimental: as §1

[3] = system: HeLa (human cervical epithelioid carcinoma); assay: MTT cytotoxicity, HeLa; format: cell-based; settings: 72 h
Experimental: as §1

[4] = system: HepG2 (human hepatocellular carcinoma); assay: MTT cytotoxicity, HepG2; format: cell-based; settings: 72 h
Experimental: as §1

[5] = Cyclic voltammetry in DMF; format: physicochemical; settings: comparison value
From the text: The electrochemical properties of the gold(III) compounds in DMF were studied by cyclic voltammetry. As compared to KAuCl4 [E°gold(III)→gold(I)=−0.4 V], the substantially more cathodic potentials of −1.43 to −1.83 V vs Cp2Fe^+/0 required for the gold(III) reduction in all the gold(III) compounds is consistent with stabilization of gold(III) by the dianionic CNC ligand.

[6] = system: cancers; assay: Potency against cancers compared with cis-platin
[7] = system: several human cancer cell lines; assay: Cytotoxic activities against several cancer cell lines (MTT); format: cell-based
Experimental: as §1
A number of structurally distinct gold(III)-phosphino compounds (3a-g) were synthesized and assayed for cytotoxic activities against several cancer cell lines (see Table 1). […] Whereas, shortening (n=1 or 2) or lengthening (n=4, 5 or 6) the hydrocarbon linker reduced the cytotoxicity, with IC50 values increasing by at least an order of magnitude.

[8] = system: nude mice; assay: In vivo toxicity studies in nude mice
[9] = system: SUNE1 cells; assay: Cell cycle analysis by flow cytometry (propidium iodide); format: cell-based, human; settings: 24- or 48-h incubation
Experimental: To find out whether cellular DNA is a major target of the gold(III) compounds, we studied the cell cycle profiles of 3d-treated cancer cells. Cell cycle analysis was performed by assessing the DNA content of cells stained with propidium iodide using flow cytometry. This enables quantification of the total cellular populations in the different phases of the cell cycle (G0/G1, S and G2/M). […] Compound 3d appears to affect its cytotoxicity via some alternative mechanistic pathways.

[10] = Solution stability (UV-vis, NMR); format: physicochemical; settings: 24 h
[11] = system: 100-base pair DNA ladder; assay: Gel mobility shift assay (DNA intercalation); format: binding; settings: 1.5% agarose gel, DNA 50 μM bp-1
Experimental: A gel mobility shift assay was employed to determine the intercalating property 3d [E. C. Long, J. K. Barton, Acc. Chem. Res. 1990, 23, 271] to evaluate the effect 3d, had upon the DNA binding affinities. A 100-base pair DNA ladder treated with 3d, or ethidium bromide (EB, DNA intercalator) as well as a control were resolved by agarose gel electrophoresis. Briefly, gel electrophoresis of 100-bp DNA ladder on a 1.5% (w/v) agarose gel was performed showing the mobility of DNA (50 μM bp-1) in the absence or presence of ethidium bromide (EB), or compound 3d. […] The bound DNA would have lower mobility compared to that of the free DNA.

c1ccc([P+](c2ccccc2)(c2ccccc2)[Au-]23[c]4ccccc4-c4cccc([n+]42)-c2cccc[c]23)cc1 [3a]
IC50 [1]: 17 ± 2 µM
IC50 [2]: 11 ± 2 µM
IC50 ratio (CNE1/SUNE1), resistance factor [2]: 0.65

O=S(=O)([O-])C(F)(F)F.O=S(=O)([O-])C(F)(F)F.c1ccc([P+](CCCC[P+](c2ccccc2)(c2ccccc2)[Au-]23[c]4ccccc4-c4cccc([n+]42)-c2cccc[c]23)(c2ccccc2)[Au-]23[c]4ccccc4-c4cccc([n+]42)-c2cccc[c]23)cc1 [3e, [Au2(CNC)2(μ-dppb)](CF3SO3)2]
IC50 [3]: 2.4 ± 0.2 µM
IC50 [1]: 1.5 ± 0.2 µM
IC50 [2]: 2.2 ± 0.3 µM
IC50 ratio (CNE1/SUNE1), resistance factor [2]: 1.5

O=S(=O)([O-])C(F)(F)F.O=S(=O)([O-])C(F)(F)F.c1ccc([P+](CCCCC[P+](c2ccccc2)(c2ccccc2)[Au-]23[c]4ccccc4-c4cccc([n+]42)-c2cccc[c]23)(c2ccccc2)[Au-]23[c]4ccccc4-c4cccc([n+]42)-c2cccc[c]23)cc1 [3f, [Au2(CNC)2(μ-dpppe)](CF3SO3)2]
IC50 [3]: 1.5 ± 0.3 µM
IC50 [1]: 1.6 ± 0.3 µM
IC50 [2]: 2.5 ± 0.3 µM
IC50 ratio (CNE1/SUNE1), resistance factor [2]: 1.6

O=S(=O)([O-])C(F)(F)F.O=S(=O)([O-])C(F)(F)F.c1ccc([P+](CCCCCC[P+](c2ccccc2)(c2ccccc2)[Au-]23[c]4ccccc4-c4cccc([n+]42)-c2cccc[c]23)(c2ccccc2)[Au-]23[c]4ccccc4-c4cccc([n+]42)-c2cccc[c]23)cc1 [3g, [Au2(CNC)2(μ-dpph)](CF3SO3)2]
IC50 [3]: 3.2 ± 0.4 µM
IC50 [1]: 4.3 ± 0.9 µM
IC50 [2]: 3.2 ± 0.5 µM
IC50 ratio (CNE1/SUNE1), resistance factor [2]: 0.74

O=S(=O)([O-])C(F)(F)F.O=S(=O)([O-])C(F)(F)F.O=S(=O)([O-])C(F)(F)F.c1ccc([P+](CC[P+](c2ccccc2)(c2ccccc2)[Au-]23[c]4ccccc4-c4cccc([n+]42)-c2cccc[c]23)(CC[P+](c2ccccc2)(c2ccccc2)[Au-]23[c]4ccccc4-c4cccc([n+]42)-c2cccc[c]23)[Au-]23[c]4ccccc4-c4cccc([n+]42)-c2cccc[c]23)cc1 [3h, [Au3(CNC)3(μ-dpep)](CF3SO3)3]
IC50 [3]: 0.93 ± 0.09 µM
IC50 [1]: 0.26 ± 0.03 µM
IC50 [4]: 3.8 ± 0.6 µM
IC50 [2]: 0.4 ± 0.05 µM
IC50 ratio (CNE1/SUNE1), resistance factor [2]: 1.5

[Cl][Au-]([Cl])([Cl])[Cl].[K+] [KAuCl4]
E° gold(III)→gold(I) [5]: −0.4 V

[Cl-].[Cl][Pt-2]12[n+]3ccccc3-c3cccc([n+]31)-c1cccc[n+]12 [[Pt(terpy)Cl]Cl, reference compound]
IC50 [3]: 14 ± 2 µM
IC50 [1]: 11 ± 3 µM
IC50 [4]: 23 ± 3 µM
IC50 [2]: 13 ± 2 µM
IC50 ratio (CNE1/SUNE1), resistance factor [2]: 1.2

N.N.[Cl][Pt][Cl] [cisplatin, reference compound]
IC50 [3]: 11 ± 1 µM
IC50 [1]: 1 ± 0.1 µM
IC50 [4]: 1.6 ± 0.2 µM
IC50 [2]: 3.3 ± 0.5 µM
IC50 ratio (CNE1/SUNE1), resistance factor [2]: 3.3

O=S(=O)([O-])C(F)(F)F.O=S(=O)([O-])C(F)(F)F.c1ccc([P+](CCC[P+](c2ccccc2)(c2ccccc2)[Au-]23[c]4ccccc4-c4cccc([n+]42)-c2cccc[c]23)(c2ccccc2)[Au-]23[c]4ccccc4-c4cccc([n+]42)-c2cccc[c]23)cc1 [compound 3d, [Au2(CNC)2(μ-dppp)](CF3SO3)2]
potency against cancers relative to cis-platin [6]: about 200 times
Relative cytotoxicity among metal-free and metallated 1,2-bis(diphenylphosphino)Cn compounds [7]: most cytotoxic
IC50 [3]: 0.043 µM
IC50 [1]: 0.055 µM
toxicity to nude mice ([8]; concentrations 20-fold higher than the effective dose): non-toxic
DNA mutation upon usage ([8]; mouse, in vivo): does not cause DNA mutation
Effect on cell cycle [9]: did not significantly affect the cell cycle
IC50 [4]: 0.21 ± 0.09 µM
IC50 [2]: 0.091 µM
IC50 ratio (CNE1/SUNE1), resistance factor [2]: 1.7
Stability on standing in DMSO or TBS (UV-vis, 31P, 1H NMR) [10]: no UV-vis, ^31P or ^1H NMR spectral changes
DNA intercalation (tailing effect in gel) [11]: does not bind to DNA by intercalation
